Key:
Mus musculus [1] = experiment: Antagonism of apomorphine for 10-20 minutes in reserpinized mice when a dose of 0.4 micro mol/kg is administered intraperitoneally; type: functional
Mus musculus [2] = experiment: Ability to stimulate dopaminergic systems by effect on locomotor activity in reserpinized mice when a dose of 3.6 micro mol/kg is administered intraperitoneally; type: functional
Mus musculus [3] = experiment: Antagonism of apomorphine in reserpinized mice when a dose of 3.6 micro mol/kg is administered intraperitoneally; type: functional
Mus musculus [4] = experiment: Ability to stimulate dopaminergic systems by effect on locomotor activity in reserpinized mice when a dose of 36 micro mol/kg is administered intraperitoneally; type: functional
Mus musculus [5] = experiment: Antagonism of apomorphine for 0-10 minutes in reserpinized mice when a dose of 3.6 micro mol/kg is administered intraperitoneally; type: functional
D(2) dopamine receptor [6] = biological target: T1, D(2) dopamine receptor (Homo sapiens, UniProt P14416); experiment: Binding affinity against [3H]U-86,170-labeled dopamine receptor D2 in cloned CHO cells; type: cell-based
Mus musculus [7] = experiment: Antagonism of apomorphine for 10-20 minutes in reserpinized mice when a dose of 3.6 micro mol/kg is administered intraperitoneally; type: functional
Mus musculus [8] = experiment: Antagonism of apomorphine for 10-20 minutes in reserpinized mice when a dose of 36 micro mol/kg is administered intraperitoneally; type: functional
Mus musculus [9] = experiment: Antagonism of apomorphine in reserpinized mice when a dose of 0.4 micro mol/kg is administered intraperitoneally; type: functional
D(2) dopamine receptor [10] = biological target: T2, D(2) dopamine receptor (Rattus norvegicus, UniProt P61169); experiment: Inhibitory concentration against [3H]raclopride-labeled dopamine receptor D2 in rat striatum; type: tissue-based
Mus musculus [11] = experiment: Ability to stimulate dopaminergic systems by effect on locomotor activity in reserpinized mice when a dose of 0.4 micro mol/kg is administered intraperitoneally; type: functional
Mus musculus [12] = experiment: Antagonism of apomorphine for 0-10 minutes in reserpinized mice when a dose of 0.4 micro mol/kg is administered intraperitoneally; type: functional
Mus musculus [13] = experiment: Antagonism of apomorphine for 0-10 minutes in reserpinized mice when a dose of 36 micro mol/kg is administered intraperitoneally; type: functional
Mus musculus [14] = experiment: Antagonism of apomorphine in reserpinized mice when a dose of 36 micro mol/kg is administered intraperitoneally; type: functional
Mus musculus [15] = experiment: Antagonism of apomorphine for 0-10 minutes in reserpinized mice when a dose of 37 micro mol/kg is administered intraperitoneally; type: functional
Rattus norvegicus [16] = experiment: Inhibition of firing rates of dopaminergic neurons in the substantia nigra pars compacta by intravenous injection in rats.; type: functional
Mus musculus [17] = experiment: Antagonism of apomorphine for 10-20 minutes in reserpinized mice when a dose of 3.7 micro mol/kg is administered intraperitoneally; type: functional
Mus musculus [18] = experiment: Ability to stimulate dopaminergic systems by effect on locomotor activity in reserpinized mice when a dose of 37 micro mol/kg is administered intraperitoneally; type: functional
Mus musculus [19] = experiment: Antagonism of apomorphine in reserpinized mice when a dose of 3.7 micro mol/kg is administered intraperitoneally; type: functional
Mus musculus [20] = experiment: Antagonism of apomorphine for 0-10 minutes in reserpinized mice when a dose of 3.7 micro mol/kg is administered intraperitoneally; type: functional
Mus musculus [21] = experiment: Antagonism of apomorphine in reserpinized mice when a dose of 37 micro mol/kg is administered intraperitoneally; type: functional
D(2) dopamine receptor [22] = biological target: T1, D(2) dopamine receptor; experiment: Intrinsic activity from GTP shift using CHO cell membranes expressing dopamine receptor D2; type: functional
Mus musculus [23] = experiment: Ability to stimulate dopaminergic systems by effect on locomotor activity in reserpinized mice when a dose of 3.7 micro mol/kg is administered intraperitoneally; type: functional
D(2) dopamine receptor [24] = biological target: T2, D(2) dopamine receptor; experiment: Binding affinity for [3H]raclopride-labeled dopamine receptor D2 in rat striatum; type: tissue-based
Mus musculus [25] = experiment: Antagonism of apomorphine for 10-20 minutes in reserpinized mice when a dose of 37 micro mol/kg is administered intraperitoneally; type: functional
Mus musculus [26] = experiment: Antagonism of apomorphine in reserpinized mice when a dose of 43 micro mol/kg is administered intraperitoneally; type: functional
Mus musculus [27] = experiment: Antagonism of apomorphine for 0-10 minutes in reserpinized mice when a dose of 4.3 micro mol/kg is administered intraperitoneally; type: functional
Mus musculus [28] = experiment: Ability to stimulate dopaminergic systems by effect on locomotor activity in reserpinized mice when a dose of 4.3 micro mol/kg is administered intraperitoneally; type: functional
Rattus norvegicus [29] = experiment: Inhibition of firing rates of dopaminergic neurons in the substantia nigra pars compacta by intravenous injection in rats; type: functional
Rattus norvegicus [30] = experiment: Effect on the synthesis rates of serotonin (5-HTP accumulation) in the rat ventral limbic brain region 43.2 umol/kg.; type: functional, Limbic system
Mus musculus [31] = experiment: Antagonism of apomorphine for 0-10 minutes in reserpinized mice when a dose of 43 micro mol/kg is administered intraperitoneally; type: functional
Rattus norvegicus [32] = experiment: Effect on the synthesis rates of dopamine (DOPA accumulation) in the rat ventral limbic brain region at 43.2 uM/kg.; type: functional, Limbic system
Mus musculus [33] = experiment: Antagonism of apomorphine for 10-20 minutes in reserpinized mice when a dose of 43 micro mol/kg is administered intraperitoneally; type: functional
Mus musculus [34] = experiment: Ability to stimulate dopaminergic systems by effect on locomotor activity in reserpinized mice when a dose of 43 micro mol/kg is administered intraperitoneally; type: functional
Mus musculus [35] = experiment: Antagonism of apomorphine for 10-20 minutes in reserpinized mice when a dose of 4.3 micro mol/kg is administered intraperitoneally; type: functional
Mus musculus [36] = experiment: Antagonism of apomorphine in reserpinized mice when a dose of 4.3 micro mol/kg is administered intraperitoneally; type: functional
Mus musculus [37] = experiment: Antagonism of apomorphine in reserpinized mice when a dose of 38 micro mol/kg is administered intraperitoneally; type: functional
Mus musculus [38] = experiment: Antagonism of apomorphine for 10-20 minutes in reserpinized mice when a dose of 3.8 micro mol/kg is administered intraperitoneally; type: functional
Mus musculus [39] = experiment: Antagonism of apomorphine for 10-20 minutes in reserpinized mice when a dose of 38 micro mol/kg is administered intraperitoneally; type: functional
Mus musculus [40] = experiment: Ability to stimulate dopaminergic systems by effect on locomotor activity in reserpinized mice when a dose of 38 micro mol/kg is administered intraperitoneally; type: functional
Rattus norvegicus [41] = experiment: Inhibition of firing rates of serotonergic neurons in the dorsal raphe nucleus by intravenous injection in rats; type: functional; details: Rattus norvegicus, Dorsal raphe nucleus, iv; read-out: ED50
Mus musculus [42] = experiment: Antagonism of apomorphine in reserpinized mice when a dose of 3.8 micro mol/kg is administered intraperitoneally; type: functional
Mus musculus [43] = experiment: Antagonism of apomorphine for 0-10 minutes in reserpinized mice when a dose of 38 micro mol/kg is administered intraperitoneally; type: functional
Mus musculus [44] = experiment: Ability to stimulate dopaminergic systems by effect on locomotor activity in reserpinized mice when a dose of 3.8 micro mol/kg is administered intraperitoneally; type: functional
Mus musculus [45] = experiment: Antagonism of apomorphine for 0-10 minutes in reserpinized mice when a dose of 3.8 micro mol/kg is administered intraperitoneally; type: functional
D(2) dopamine receptor [46] = biological target: T2, D(2) dopamine receptor; experiment: Inhibitory concentration against [3H]raclopride-labeled dopamine receptor D2 in rat striatum was estimated from single point experiment. compound was run at 1 uM

T2 sequence (P61169 whole entry): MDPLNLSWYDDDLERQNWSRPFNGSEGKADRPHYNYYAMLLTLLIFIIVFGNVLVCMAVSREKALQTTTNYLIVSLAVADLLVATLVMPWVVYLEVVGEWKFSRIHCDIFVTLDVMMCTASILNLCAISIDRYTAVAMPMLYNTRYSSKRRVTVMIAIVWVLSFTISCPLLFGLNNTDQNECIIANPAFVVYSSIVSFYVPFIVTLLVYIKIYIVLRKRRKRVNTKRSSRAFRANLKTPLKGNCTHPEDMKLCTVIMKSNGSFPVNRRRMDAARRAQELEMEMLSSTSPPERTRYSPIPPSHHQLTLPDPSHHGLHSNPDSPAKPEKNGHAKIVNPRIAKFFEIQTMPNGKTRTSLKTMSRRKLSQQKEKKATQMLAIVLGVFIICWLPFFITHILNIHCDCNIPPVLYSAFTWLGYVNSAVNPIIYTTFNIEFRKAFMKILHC
T1 sequence (P14416 whole entry): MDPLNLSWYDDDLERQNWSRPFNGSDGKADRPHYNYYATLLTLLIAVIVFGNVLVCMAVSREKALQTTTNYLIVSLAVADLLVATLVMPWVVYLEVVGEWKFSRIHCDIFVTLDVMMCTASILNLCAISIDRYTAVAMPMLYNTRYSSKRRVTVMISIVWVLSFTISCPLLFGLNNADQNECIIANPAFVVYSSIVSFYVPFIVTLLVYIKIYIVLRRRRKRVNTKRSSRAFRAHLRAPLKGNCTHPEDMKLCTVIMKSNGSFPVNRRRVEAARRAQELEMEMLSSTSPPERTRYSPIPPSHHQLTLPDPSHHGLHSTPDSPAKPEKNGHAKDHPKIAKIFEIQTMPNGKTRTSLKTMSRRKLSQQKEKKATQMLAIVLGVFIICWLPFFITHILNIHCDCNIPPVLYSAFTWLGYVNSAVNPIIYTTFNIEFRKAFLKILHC

SMILES: CCCN1CC[C@@H]2Cc3c(cccc3OC)C[C@H]21
- Locomotor activity (Mus musculus [1]): 30
- Locomotor activity (Mus musculus [2]): 851
- Locomotor activity (Mus musculus [3]): 72
- Locomotor activity (Mus musculus [4]): 308
- Locomotor activity (Mus musculus [5]): 18
- Ki (D(2) dopamine receptor [6]): 75 nM
- Locomotor activity (Mus musculus [7]): 12
- Locomotor activity (Mus musculus [8]): 20
- Locomotor activity (Mus musculus [9]): 86
- IC50 (D(2) dopamine receptor [10]): > 1000 nM
- Locomotor activity (Mus musculus [11]): 581
- Locomotor activity (Mus musculus [12]): 20
- Locomotor activity (Mus musculus [13]): 21
- Locomotor activity (Mus musculus [14]): 14

SMILES: C=CCN1CC[C@H]2Cc3c(O)cccc3C[C@@H]21
- Locomotor activity (Mus musculus [15]): 84
- Locomotor activity (Mus musculus [1]): 119
- ED50 (Rattus norvegicus [16]): 0.94 µmol/kg
- Locomotor activity (Mus musculus [17]): 119
- Locomotor activity (Mus musculus [18]): 113
- Ki (D(2) dopamine receptor [6]): 235 nM
- Locomotor activity (Mus musculus [19]): 86
- Locomotor activity (Mus musculus [20]): 109
- Locomotor activity (Mus musculus [9]): 81
- Locomotor activity (Mus musculus [21]): 77
- Intrinsic activity (D(2) dopamine receptor [22]): 21%
- Locomotor activity (Mus musculus [23]): 1
- Ki (D(2) dopamine receptor [24]): 47 nM
- Locomotor activity (Mus musculus [11]): 45
- Locomotor activity (Mus musculus [12]): 121
- Locomotor activity (Mus musculus [25]): 103

SMILES: CCCN1CC[C@H]2Cc3c(cccc3OC)C[C@@H]21
- IC50 (D(2) dopamine receptor [10]): > 1000 nM

SMILES: CCCN1CC[C@@H]2Cc3c(O)cccc3C[C@H]21 (racemic)
- Locomotor activity (Mus musculus [26]): 114
- Locomotor activity (Mus musculus [1]): 71
- Locomotor activity (Mus musculus [27]): 46
- Ki (D(2) dopamine receptor [6]): 2.4 nM
- Locomotor activity (Mus musculus [28]): 912
- ED50 (Rattus norvegicus [29]): 0.003 µmol/kg
- Locomotor activity (Mus musculus [9]): 98
- Control (Rattus norvegicus [30]): -4%
- Locomotor activity (Mus musculus [31]): 29
- Control (Rattus norvegicus [32]): -47%
- Locomotor activity (Mus musculus [33]): 23
- Ki (D(2) dopamine receptor [24]): 17 nM
- Locomotor activity (Mus musculus [11]): 423
- Locomotor activity (Mus musculus [12]): 41
- Locomotor activity (Mus musculus [34]): 1539
- Locomotor activity (Mus musculus [35]): 38
- Locomotor activity (Mus musculus [36]): 69

SMILES: C=CCN1CC[C@@H]2Cc3c(cccc3OC)C[C@@H]21 (racemic)
- Ki (D(2) dopamine receptor [24]): 429 nM

SMILES: C=CCN1CC[C@@H]2Cc3c(O)cccc3C[C@H]21 (racemic)
- Locomotor activity (Mus musculus [37]): 123
- Locomotor activity (Mus musculus [1]): 77
- Locomotor activity (Mus musculus [38]): 54
- Locomotor activity (Mus musculus [39]): 46
- Locomotor activity (Mus musculus [40]): 1783
- Ki (D(2) dopamine receptor [6]): 235 nM
- ED50 (Rattus norvegicus [29]): 0.007 µmol/kg
- ED50 (Rattus norvegicus [41]): 0.35 µmol/kg
- Locomotor activity (Mus musculus [9]): 108
- Ki (D(2) dopamine receptor [24]): 47 nM
- Locomotor activity (Mus musculus [11]): 450
- Locomotor activity (Mus musculus [12]): 61
- Locomotor activity (Mus musculus [42]): 133
- Locomotor activity (Mus musculus [43]): 55
- Locomotor activity (Mus musculus [44]): 1409
- Locomotor activity (Mus musculus [45]): 40

SMILES: C=CCN1CC[C@@H]2Cc3cccc(OC)c3C[C@@H]21 (racemic)
- IC50 (D(2) dopamine receptor [46]): > 1000 nM

SMILES: CCCN1CC[C@@H]2Cc3c(cccc3OC)C[C@@H]21 (racemic)
- IC50 (D(2) dopamine receptor [10]): > 1000 nM

SMILES: CCCN1[C@H](C)C[C@@H]2Cc3cccc(OC)c3C[C@@H]21 (racemic)
- IC50 (D(2) dopamine receptor [10]): > 1000 nM

SMILES: C=CCN1CC[C@@H]2Cc3cccc(OC)c3C[C@H]21 (racemic)
- IC50 (D(2) dopamine receptor [10]): > 1000 nM

SMILES: Oc1cccc2c1C[C@H]1CCN(CC3CC3)[C@@H]1C2 (racemic)
- Locomotor activity (Mus musculus [1]): 88
- Locomotor activity (Mus musculus [2]): 539
- Locomotor activity (Mus musculus [3]): 163
- Locomotor activity (Mus musculus [4]): 1033
- Locomotor activity (Mus musculus [5]): 31
- Locomotor activity (Mus musculus [7]): 60
- Locomotor activity (Mus musculus [8]): 49
- Locomotor activity (Mus musculus [9]): 129
- Intrinsic activity (D(2) dopamine receptor [22]): 73%
- Ki (D(2) dopamine receptor [24]): 118 nM
- Locomotor activity (Mus musculus [11]): 1
- Locomotor activity (Mus musculus [12]): 83
- Locomotor activity (Mus musculus [13]): 25
- Locomotor activity (Mus musculus [14]): 117

Source: ChEMBL document CHEMBL1126639, “Centrally acting serotonergic and dopaminergic agents. 2. Synthesis and structure-activity relationships of 2,3,3a,4,9,9a-hexahydro-1H-benz[f]indole derivatives” (J Med Chem, 1993)
